Laboratory results as given in patent publication EP2742937A1, “Compositions for use in the treatment of bacterial infections” (LIONEX Diagnostics and Therapeutics GmbH, priority 2012, dated 2014).
≈ marks a conversion by molar mass, not a printed value. Like-named read-outs stand apart in the source and are kept apart here.

How the values were obtained:
[1] = test system: M. bovis BCG; assay: microbe, parasite or virus in culture; type: cell-based, Mycobacterium bovis BCG; settings: for MIC With medium containing 50 % FBS / MIC in 100% medium: M. bovis BCG, resazurin assay; for MIC With medium containing 50 % FBS: 50 % fetal bovine serum; for MIC in 100% medium: no FBS; for MIC: Mycobacterium tuberculosis variant bovis BCG, BCG, read-out: MIC With medium containing 50 % FBS
[2] = test system: L929 cell line; assay: MTT cell proliferation assay (in vitro toxicity); type: cell-based, mouse; settings: for IC50: Mus musculus, L929, 120 h
[3] = test system: M. tuberculosis H37Rv; assay: Resazurin microtiter assay (REMA), MIC; type: cell-based; settings: for MIC: Mycobacterium tuberculosis; for synergistic effect with ethambutol: in words
[4] = in words; Haebich & Von Nussbaum, 2009; cited from earlier work
[5] = MTT assay after 5 days, individual substances, read-out: In vitro toxicity with L929 cell line IC50
[6] = H37RV, REMA, individual substance, read-out: MIC (µg/ml) against M. tuberculosis H37Rv Individual substance
[7] = MTT assay after 5 days, individual substances
[8] = H37RV, read-out: MIC (µg/ml) against M. tuberculosis H37Rv With medium containing ethambutol

| SMILES | MIC With medium containing 50 % FBS [1] | MIC in 100% medium [1] | MIC [1] | IC50 [2, 5] | MIC [3, 6] | serum protein binding [4] | In vitro toxicity with L929 cell line IC50 [2, 7] | MIC (µg/ml) against M. tuberculosis H37Rv With medium containing ethambutol ([3]; REMA, Ethambutol at Conc. 0.3 µg/ml in medium) | MIC (µg/ml) against M. tuberculosis H37Rv Individual substance ([3]; REMA, individual substance) | synergistic effect with ethambutol [3] | In vitro toxicity with L929 cell line IC50 (µg/ml) [2, 7] | IC50 ([2]; read-out: In vitro toxicity with L929 cell line IC50 (µg/ml)) | FIC ([3]; H37RV) | MIC (µg/ml) against M. tuberculosis H37Rv Individual substance ([3]; H37RV) | MIC ([3]; H37RV, read-out: MIC (µg/ml) against M. tuberculosis H37Rv Individual substance) | MIC [3, 8] | MIC (µg/ml) against M. tuberculosis H37Rv Individual substance ([3]; REMA, individual substance, listed as ripostatin) |
| --- | --- | --- | --- | --- | --- | --- | --- | --- | --- | --- | --- | --- | --- | --- | --- | --- | --- |
| CC[C@@H](CO)NCCN[C@@H](CC)CO [Ethambutol] | not affected by the addition of the FBS | 2.5 | 2.5 µg/mL (≈ 12.2 µM) | > 100 µg/mL | 1.6 µg/mL (≈ 7.83 µM) | – | – | – | – | – | – | – | – | – | – | – | – |
| C/C=C/C/C=C(\C)C(O)CC/C(C)=C/C=C(\C)C(=O)c1c(O)cc([C@H](C)CC/C=C/NC(=O)OC)oc1=O (stereo partly drawn) [Corallopyronin] | – | – | – | – | – | high serum protein binding | 25 µg/mL | 12.5 µg/mL (≈ 23.7 µM) | 12.5 µg/mL (≈ 23.7 µM) | did not show synergism with ethambutol | – | – | – | – | – | – | – |
| CCCC(C)=CC=C(C)C(=O)c1c(O)cc(C(C)CCC=CNC(=O)OC)oc1=O (stereo not drawn) [Myxopyronin A] | did not inhibit the growth of M. bovis BCG | 6.25 | > 25 µg/mL | – | – | high serum protein binding | – | – | – | synergistic effect | did not inhibit L929 cell proliferation at all tested concentrations | > 100 µg/mL | 0.64 | 6.25 µg/mL (≈ 15 µM) | 6.25 µg/mL (≈ 15 µM) | 3.12 µg/mL (≈ 7.48 µM) | – |
| C/C(=C\Cc1ccccc1)CCC(=O)C[C@H]1C[C@H](O)C/C(C)=C/C/C=C/C/C(CC(=O)O)=C\C(=O)O1 [Ripostatin] | – | – | – | > 100 µg/mL | > 25 µg/mL | – | – | – | no inhibition up to 25 µg/ml | did not show synergism with ethambutol | – | – | – | – | – | > 25 µg/mL | > 25 µg/mL |
